The text below walks through data of paper PMC8115619, “Generation of a chemical genetic model for JAK3” (Scientific Reports, 2021).

As a reminder, the IC50 is the midpoint of a concentration-inhibition curve. A higher IC50 goes with lower potency.

The structures appear in SMILES notation.

Assay [1] relates to IL-4 induced STAT6 phosphorylation in wild type BMDMs. As to the kind of experiment: Inhibitor washout, IL-4 induced STAT6 phosphorylation, wild type BMDMs. It is filed as cell-based, mouse. Conditions: inhibitor 2 h, 0.5 μM Ruxolitinib. The procedure: Covalent inhibitors would be predicted to have very slow off rates and therefore inhibition should remain even if the unbound inhibitors are washed out of the cells. To test this, cells were treated with a high concentration of inhibitor for 2 h before being washed 3 times in PBS and then incubated in media without inhibitor for 0.5 to 24 h. If the inhibitor acts via a non-covalent mechanism, inhibition would not be expected to remain following washout from the cells. Ruxolitinib is a non-covalent pan-JAK inhibitor that can inhibit multiple JAK-STAT pathways in macrophages. […] To confirm this was not the case, similar experiments were done in JAK3 Cys905Ser knockin cells. […] Similar experiments were also carried out with PF-06651600. […] As the level of inhibition was lower at 2 h post washout than 30 min the experiment was repeated to look at 4 and 24 h time points for the washout step.
Figure 4 Effect of inhibitor washout on JAK3 inhibition. BMDMs were isolated from wild type and JAK3 Cys905Ser knockin mice. […] The macrophages were then either stimulated with 10 ng/ml IL-4 for 30 min or washed 3 times in PBS and then incubated in media without inhibitor for the indicated times. The cells were then stimulated with IL-4 for 30 min and STAT6 phosphorylation determined by immunoblotting using levels of ERK1/2 as a loading control.
(§1) Bone marrow derived macrophages (BMDMs) were cultured as described. Briefly, bone marrow was flushed in PBS from the femurs and tibias of mice. Cells were cultured on bacterial grade plastic for 7 days at 37 °C, 5% CO2. Cells were then detached using Versene (Gibco), re-plated on tissue culture plastic in BMDM media (in DMEM supplemented with 10% heat inactivated FBS (Labtech), 2 mM L-glutamine, 100 U/ml penicillin G, 100 μg/ml streptomycin and 0.25 μg/ml amphotericin, 5 ng/ml M-CSF) and used within 48 h. Where indicated cells were stimulated with 10 ng/ml IL-4, 10 ng/ml GM-CSF, 10 ng/ml IL-10 or 10 ng/ml IFNβ. All cytokines were from PeproTech.
(§2) Cells were lysed directly into SDS sample buffer and aliquots run on 10% polyacrylamide gels using standard methods. Proteins were transferred onto nitrocellulose membranes, and specific proteins were detected by immunoblotting. Antibodies against tyrosine phosphorylated STATs were from Cell Signaling Technology (phospho-STAT1 #9167, phospho-STAT3 #9131, phospho-STAT5 #4322 and phospho-STAT6 #9361). The total ERK1/2 antibody used as a loading control was also from cell Signaling Technology (#4695). HRP-conjugated secondary antibodies were obtained from Pierce. Bands were detected using Clarity ECL reagents from BioRad and imaged on a Licor Odyssey Fc system. Quantification was carried out using Licor Image Studio software. After correction for the ERK1/2 levels to account for loading differences, percentage inhibition was calculated relative to the IL-4 stimulated condition. IC50 values were calculated using the same methods as for the in vitro IC50 values.

The test system of assay [2] is IL-4 induced STAT6 phosphorylation in BMDMs from JAK3 Cys905Ser knockin mice. As to the kind of experiment: IL-4 induced STAT6 phosphorylation in JAK3 Cys905Ser knockin BMDMs (immunoblot). Type of assay: cell-based, mouse. The conditions noted are these: Mus musculus, BMDM, 0.5 h; 10 ng/ml IL-4 30 min, pSTAT6 Tyr641 immunoblot, two independent experiments. The method, then: (§3) Figure 3 Effect of JAK3 inhibitors on IL-4 induced STAT6 phosphorylation. BMDMs were isolated from wild type and JAK3 Cys905Ser knockin mice. Cells were incubated with the indicated concentrations of inhibitor before stimulation for 30 min with 10 ng/ml IL-4. Cells were lysed and the levels of STAT6 phosphorylated at Tyr641 were assessed by immunoblotting. Levels of ERK1/2 were determined as a loading control.
as §1, §2
Background: A western blot detects proteins with antibodies after separation by electrophoresis.

The subject of assay [3] is IL-4 induced STAT6 phosphorylation in wild type BMDMs. As to the kind of experiment: IL-4 induced STAT6 phosphorylation in wild type BMDMs (immunoblot). Type of assay: cell-based. The conditions noted are these: Mus musculus, BMDM, 0.5 h; 10 ng/ml IL-4 30 min, pSTAT6 Tyr641 immunoblot, two independent experiments. The method, then: as §3, §1, §2

`N#CC[C@H](C1CCCC1)n1cc(-c2ncnc3[nH]ccc23)cn1` [Ruxolitinib]: the “block of IL-4 induced STAT6 phosphorylation without washout, wild type BMDMs” value in assay [1] (no washout, 10 μM TL6-144) is “completely block”. The “inhibition of IL-4 induced STAT6 phosphorylation after inhibitor washout, wild type BMDMs” value in assay [1] (washed 3 times in PBS, IL-4 30 min to 2 h after washout, 10 μM TL6-144, 100 μM PF-06651600) was “completely lost”.
On to `CN(C)C(=O)/C(C#N)=C/c1ccc(-c2nc3cnc4[nH]ccc4c3n2C2CCCCC2)o1` [FM-381, reference compound], for which the IC50 in assay [2] was 890 nM; in assay [3], 180 nM.
